In patent US11680047B2, “Enhanced erythropoiesis and iron metabolism” (FibroGen, Inc., priority 2003, dated 2023):

What was measured:
E-selectin = test: TNF-α induced E-selectin expression in HUVEC; type: cell-based, human; settings: 1 ng/ml TNF-α, various concentrations, 1 day
Excerpt: Endothelial E-selectin belongs to the selectin family of cellular adhesion molecules mediating the initial attachment of leukocytes to vascular endothelial cells in inflammatory events. IL-1β, TNF-α, and lipopolysaccharides each induce the expression of E-selectin. (See, e.g., Bevilacqua et al. (1987) Proc Natl Acad Sci USA 84:9238-9242 and Bevilacqua and van Furth (1993) J Leukoc Biol 54:363-378.) To investigate the effect of HIF prolyl hydroxylase inhibition on TNF-α induced E-selectin expression, HUVECs were stimulated with 1 ng/ml TNF-α in the absence or presence of various concentrations of compound B or compound C for 1 day. E-selectin and VCAM expression were then measured.

Hepcidin = Hepcidin mRNA expression in mouse liver (microarray); type: in vivo
Experimental: (§1) Compounds were generally administered orally by gavage or IV administration. Animals treated by oral gavage received a 4-10 ml/kg volume of either 0.5% carboxymethyl cellulose (CMC; Sigma-Aldrich, St. Louis Mo.) with or without 0.1% Polysorbate 80 (0 mg/kg/day) or varying doses of a compound of the present invention (e.g., a HIF prolyl hydroxylase inhibitor) in 0.5% CMC, with or without 0.1% Polysorbate 80, using various dosing regimens. Blood samples were collected at appropriate intervals during treatment from, e.g., tail vein (rats), or abdominal vein or cardiocentesis (mice or rats). Generally, animals were anesthetized with isoflurane and blood samples were collected into MICROTAINER serum separator tubes (Becton-Dickinson, Franklin Lakes N.J.). For measurement of serum components, the tubes were incubated at room temperature for 30 minutes, and then centrifuged at 8,000 rpm at 4° C. for 10 minutes. The serum fraction was then processed and analyzed for the presence of specific components, e.g., serum iron (assay performed by Quality Clinical Labs, Mountain View, Calif.). For determination of hematocrit, blood samples were collected into MICROTAINER EDTA-2K tubes (Becton-Dickinson); EDTA-blood was then drawn into 75 mm×1.1-1.2 mm I.D. capillary tubes (Chase Scientific Glass, Inc., Rockwood Tenn.) to approximately % length, one end of the tube was sealed with CRITOSEAL sealant (Sherwood Medical Company), and the tubes were centrifuged in a J-503M MICROHEMATOCRIT centrifuge (Jorgensen Laboratories, Inc., Loveland Colo.) at 12,000 rpm for 5 minutes. Hematocrit was read against a reader card. When indicated, complete blood count (CBC) analysis, including blood hemoglobin level, reticulocyte number, and hematocrit, was performed by Quality Clinical Labs (Mountain View, Calif.).
(§2) Swiss Webster male mice were treated as described above with a single dose of 0.5% CMC (Sigma-Aldrich) (0 mg/kg) or 100 mg/kg compound A. At 4, 8, 16, 24, 48, or 72 hours post-administration, animals were anesthetized, sacrificed, and tissue samples of kidney, liver, brain, lung, and heart were isolated and stored in RNALATER solution (Ambion) at −80° C. Alternatively, animals were treated to 4 consecutive daily doses of 0.5% CMC (0 mg/kg/day), 7.5 mg/ml compound A in 0.5% CMC (30 mg/kg/day), or 25 mg/ml compound A in 0.5% CMC (100 mg/kg/day). Four hours after administration of the final dose, animals were anesthetized, sacrificed, and approximately 150 mg of liver and each kidney were isolated and stored in RNALATER solution (Ambion) at −20° C.
(§3) RNA isolation was carried out using the following protocol. A section of each organ was diced, 875 μl of RLT buffer (RNEASY kit; Qiagen Inc., Valencia Calif.) was added, and the pieces were homogenized for about 20 seconds using a rotor-stator POLYTRON homogenizer (Kinematica, Inc., Cincinnati Ohio). The homogenate was micro-centrifuged for 3 minutes to pellet insoluble material, the supernatant was transferred to a new tube and RNA was isolated using an RNEASY kit (Qiagen) according to the manufacturer's instructions. The RNA was eluted into 80 μL of water and quantitated with RIBOGREEN reagent (Molecular Probes, Eugene Oreg.). The absorbance at 260 and 280 nm was measured to determine RNA purity and concentration.
(§4) Alternatively, tissue samples were diced and homogenized in TRIZOL reagent (Invitrogen Life Technologies, Carlsbad Calif.) using a rotor-stator POLYTRON homogenizer (Kinematica). Homogenates were brought to room temperature, 0.2 volumes chloroform was added, and samples were mixed vigorously. Mixtures were incubated at room temperature for several minutes and then were centrifuged at 12,000 g for 15 min at 4° C. The aqueous phase was collected and 0.5 volumes of isopropanol were added. Samples were mixed, incubated at room temperature for 10 minutes, and centrifuged for 10 min at 12,000 g at 4° C. […]

rat model of ACD = test: Rat model of ACD (PG-PS), Experimental Series 1; type: in vivo; settings: anemic rats, 60 mg/kg PO
Excerpt: Anemia of chronic disease (ACD) is associated with various inflammatory conditions, including arthritis, neoplastic disease, and other disorders associated with chronic inflammation. A rat model of ACD was used to examine the effects of HIF stabilization using methods and compounds of the present invention on treating anemia associated with chronic disease. In this animal model, ACD is induced in rats by peptidoglycan-polysaccharide polymers. (See, e.g., Sartor et al. (1989) Infection and Immunity 57:1177-1185.) In this model, animals develop severe, acute anemia in the initial stages, followed by moderately severe chronic microcytic anemia in later stages.
Female Lewis rats of approximately 160 grams were challenged with PG-PS 10S (Lee Laboratories, 15 μg/gm body weight, intra-peritoneal). PG-PS 10S contains purified peptidoglycan-polysaccharide polymers isolated from the cell wall of Streptococcus pyogenes, Group A, D58 strain. Arthritis and anemia were allowed to develop for 35 days. On day 35, blood samples (approximately 400 μl) were taken from the tail vein under general anesthesia (Isoflurane) for CBC and reticulocyte counts (performed by Quality Clinical Labs). Animals with a spun hematocrit level at or above 45% were considered non-anemic and were removed from the study.
On day 35 following PG-PS injection, anemic animals received vehicle alone or were treated with compound A (60 mg/kg, PO) for two consecutive days per week for two weeks. Automated complete blood counts (CBC) were measured on day 35 (see above), 39, 42, and 49; serum iron levels were measured on day 49.

Ceruloplasmin = Ceruloplasmin mRNA expression in mouse kidney (microarray); type: in vivo; settings: single dose 100 mg/kg
Experimental: as §1, §2, §3, §4

## O=C(O)CNC(=O)c1ncc2cc(Oc3ccccc3)ccc2c1O [Compound B, [(4-Hydroxy-7-phenoxy-isoquinoline-3-carbonyl)-amino]-acetic acid]
E-selectin
  inhibition of TNF-α induced E-selectin expression: dose-dependent inhibition of TNF-α induced VCAM and E-selectin expression

## O=C(O)CNC(=O)c1nc(Cl)c2ccccc2c1O [Compound A, [(1-Chloro-4-hydroxy-isoquinoline-3-carbonyl)-amino]-acetic acid]
Hepcidin; animal study I, multi high dose
  Hepcidin (relative mRNA levels): 0.275
Hepcidin; animal study II, multi high dose
  Hepcidin (relative mRNA levels): 0.703
Hepcidin; animal study II, multi low dose
  Hepcidin (relative mRNA levels): 0.129
Hepcidin; animal study III, 4 hour
  Hepcidin (relative mRNA levels): 0.672
Hepcidin; animal study III, 8 hour
  Hepcidin (relative mRNA levels): 0.305
Hepcidin; animal study III, 16 hour
  Hepcidin (relative mRNA levels): 0.119
Rat model of ACD; 5 days after initiation of treatment
  hematocrit levels: approximately 37%
Rat model of ACD; as early as 5 days (day 39)
  hemoglobin levels: increased hemoglobin levels in anemic animals
Rat model of ACD; day 39
  Reticulocyte levels: approximately 10 % of red cell counts
Rat model of ACD; day 49
  hemoglobin levels: reaching a level comparable to control non-anemic animals
Rat model of ACD; following a second dosing
  hematocrit levels: approximately 40%
Rat model of ACD; from day 39
  red blood cell count: increased red blood cell count in anemic animals
Rat model of ACD; from day 39, vs non-treated anemic animals
  mean corpuscular volume: increased mean corpuscular volume
Rat model of ACD; vs non-treated anemic animals
  mean corpuscular hemoglobin levels: increased mean corpuscular hemoglobin levels
Ceruloplasmin; 4 hours
  Ceruloplasmin (relative mRNA levels): 1.16
Ceruloplasmin; 8 hours
  Ceruloplasmin (relative mRNA levels): 1.39
Ceruloplasmin; 16 hours
  Ceruloplasmin (relative mRNA levels): 1.22
Ceruloplasmin; 24 hours
  Ceruloplasmin (relative mRNA levels): 2.45
Ceruloplasmin; 48 hours
  Ceruloplasmin (relative mRNA levels): 1.44
Ceruloplasmin; 72 hours
  Ceruloplasmin (relative mRNA levels): 2.10
